Patent US7771967B2, “Nucleic acid encoding apolipoprotein E-I3” (The J. David Gladstone Institutes, priority 2006, dated 2010)

Experiments:
apoE-I3 mRNA = assay: qRT-PCR of apoE-I3 in hippocampus and cortex of kainic acid-treated mice; format: in vivo, mouse; conditions: human apoE knock-in mice, n=3
Description: ApoE-I3 and apoE mRNA levels in different samples were determined in duplicate by quantitative fluorogenic reverse transcription-PCR (qRT-PCR) using GAPDH mRNA as an internal control. RT reactions were performed with Superscript First-strand Synthesis System Kits (Invitrogen, Carlsbad, Calif.) as described earlier. qRT-PCR reactions consisted of 10 μl of diluted cDNA reaction mixture (equivalent to 4.0 ng of RNA template), 12.5 μl of SYBR Green PCR master mix (Applied Biosystems), and 300 nM of each forward and backward primer in a final volume of 25 μl. Serial dilution of pooled cDNA samples from all cells or tissues were used to generate standard curves to determine the relative levels of specific mRNAs in individual samples. The apoE-I3 mRNA levels were then calculated and normalized to the internal GAPDH mRNA standards.
(§1) Kainic acid injections. Kainic acid crosses the blood-brain barrier and induces excitotoxic CNS injury, particularly in the hippocampus and neocortex. Wildtype and human apoE3 or apoE4 knock-in mice at 4-6 months of age were injected intraperitoneally with kainic acid (Sigma) dissolved in saline (0.9%) at 25 mg/kg body weight in one dose, as described. Within ˜15 min, all mice developed seizures. Seizure activity was assessed as described. […] Mice were killed 1-6 days after the injection of kainic acid.
Preparation of mouse brain tissues. […]

[1] = Kainic acid injection, seizure activity in mice; format: in vivo, mouse; conditions: 25 mg/kg intraperitoneally, wildtype and human apoE3 or apoE4 knock-in mice, all mice
Description: as §1

Question: What does the source list for C=C(C)[C@H]1CN[C@H](C(=O)O)[C@H]1CC(=O)O [kainic acid, Kainic acid]?
Answer: increase of apoE-I3 expression (qRT-PCR) (apoE-I3 mRNA; cortex): not in the cortex; increase of apoE-I3 expression (qRT-PCR) (apoE-I3 mRNA; hippocampus): twofold; time from injection to seizures [1]: ≤ 15 min
